The record followed here is paper PMC4334727 (Circulation, 2014).

By IC50 is commonly meant the point on the concentration scale where inhibition reaches its midpoint. High values mean lower potency, low ones higher potency.

For one experiment, the target named is DUSP3 (Homo sapiens, UniProt P51452). In words: DUSP3 phosphatase inhibition assay. The format is biochemical.
Another experiment concerns the target T1, HePTP (Homo sapiens, UniProt P35236).
T1 sequence (P35236 1-360): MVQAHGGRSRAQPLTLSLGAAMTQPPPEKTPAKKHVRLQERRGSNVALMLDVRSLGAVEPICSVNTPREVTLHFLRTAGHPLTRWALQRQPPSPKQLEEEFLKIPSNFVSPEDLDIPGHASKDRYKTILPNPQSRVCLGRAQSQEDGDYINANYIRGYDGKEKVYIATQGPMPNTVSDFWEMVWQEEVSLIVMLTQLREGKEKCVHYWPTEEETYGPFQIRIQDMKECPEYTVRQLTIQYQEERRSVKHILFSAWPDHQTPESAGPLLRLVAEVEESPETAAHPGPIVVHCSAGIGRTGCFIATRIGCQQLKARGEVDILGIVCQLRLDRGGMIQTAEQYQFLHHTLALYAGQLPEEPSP
Nature of the experiment: PTP selectivity profiling. The format is biochemical.

The next experiment concerns the target T2, DUSP22 (Homo sapiens, UniProt Q9NRW4).
T2 sequence (Q9NRW4 1-184): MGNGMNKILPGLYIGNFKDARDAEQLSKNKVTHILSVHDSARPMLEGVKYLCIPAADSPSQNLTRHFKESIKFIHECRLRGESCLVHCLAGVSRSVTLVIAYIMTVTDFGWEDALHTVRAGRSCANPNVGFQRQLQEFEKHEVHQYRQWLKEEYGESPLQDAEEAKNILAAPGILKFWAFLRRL
Nature of the experiment: PTP selectivity profiling. The class given is biochemical.

A further experiment addresses T3, TCPTP (Homo sapiens, UniProt P17706).
T3 sequence (P17706 1-415): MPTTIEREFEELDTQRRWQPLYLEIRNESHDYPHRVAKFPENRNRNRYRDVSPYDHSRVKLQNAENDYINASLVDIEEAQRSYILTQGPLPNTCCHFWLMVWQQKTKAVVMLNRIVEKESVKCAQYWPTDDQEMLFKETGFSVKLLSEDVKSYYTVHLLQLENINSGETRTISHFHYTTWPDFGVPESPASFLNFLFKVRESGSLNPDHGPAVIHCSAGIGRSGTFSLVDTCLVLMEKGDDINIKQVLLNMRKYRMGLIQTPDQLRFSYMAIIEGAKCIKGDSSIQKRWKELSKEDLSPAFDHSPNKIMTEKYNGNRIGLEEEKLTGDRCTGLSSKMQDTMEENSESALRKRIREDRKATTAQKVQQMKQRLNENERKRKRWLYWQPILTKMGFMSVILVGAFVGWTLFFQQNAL
Nature of the experiment: PTP selectivity profiling. The format is biochemical.

A further experiment concerns the target T4, STEP (Homo sapiens, UniProt P54829).
T4 sequence (P54829 1-565): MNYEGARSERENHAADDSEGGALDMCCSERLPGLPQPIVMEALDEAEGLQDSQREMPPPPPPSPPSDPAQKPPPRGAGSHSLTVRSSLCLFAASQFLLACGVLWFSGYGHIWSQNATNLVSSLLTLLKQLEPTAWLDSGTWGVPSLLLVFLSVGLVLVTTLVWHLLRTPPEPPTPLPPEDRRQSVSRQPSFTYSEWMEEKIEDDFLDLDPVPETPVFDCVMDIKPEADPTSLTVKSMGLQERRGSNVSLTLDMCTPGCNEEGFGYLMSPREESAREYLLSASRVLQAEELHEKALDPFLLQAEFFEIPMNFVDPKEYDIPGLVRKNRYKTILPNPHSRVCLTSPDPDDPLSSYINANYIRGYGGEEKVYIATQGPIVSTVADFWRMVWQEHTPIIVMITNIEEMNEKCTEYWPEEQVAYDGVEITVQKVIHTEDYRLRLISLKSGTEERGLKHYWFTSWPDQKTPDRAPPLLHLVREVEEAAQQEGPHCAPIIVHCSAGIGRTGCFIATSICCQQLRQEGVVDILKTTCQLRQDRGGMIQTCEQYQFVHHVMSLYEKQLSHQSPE
In words: PTP selectivity profiling. The format is biochemical.

In a further experiment the target is T5, DUSP6 (Homo sapiens, UniProt Q16828).
T5 sequence (Q16828 1-381): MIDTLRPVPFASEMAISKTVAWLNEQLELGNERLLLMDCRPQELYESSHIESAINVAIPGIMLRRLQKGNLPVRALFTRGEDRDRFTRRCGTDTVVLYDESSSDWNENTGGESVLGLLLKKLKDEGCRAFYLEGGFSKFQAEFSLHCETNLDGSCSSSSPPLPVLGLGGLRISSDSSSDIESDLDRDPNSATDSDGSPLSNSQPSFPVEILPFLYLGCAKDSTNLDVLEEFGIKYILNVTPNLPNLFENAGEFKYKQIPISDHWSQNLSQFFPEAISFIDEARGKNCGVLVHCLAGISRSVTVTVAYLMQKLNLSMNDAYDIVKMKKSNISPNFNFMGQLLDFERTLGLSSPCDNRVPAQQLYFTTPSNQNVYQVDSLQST
In words: PTP selectivity profiling. The class given is biochemical.

The next experiment deals with T6, CD45 (Homo sapiens, UniProt P08575).
T6 sequence (P08575 26-1306): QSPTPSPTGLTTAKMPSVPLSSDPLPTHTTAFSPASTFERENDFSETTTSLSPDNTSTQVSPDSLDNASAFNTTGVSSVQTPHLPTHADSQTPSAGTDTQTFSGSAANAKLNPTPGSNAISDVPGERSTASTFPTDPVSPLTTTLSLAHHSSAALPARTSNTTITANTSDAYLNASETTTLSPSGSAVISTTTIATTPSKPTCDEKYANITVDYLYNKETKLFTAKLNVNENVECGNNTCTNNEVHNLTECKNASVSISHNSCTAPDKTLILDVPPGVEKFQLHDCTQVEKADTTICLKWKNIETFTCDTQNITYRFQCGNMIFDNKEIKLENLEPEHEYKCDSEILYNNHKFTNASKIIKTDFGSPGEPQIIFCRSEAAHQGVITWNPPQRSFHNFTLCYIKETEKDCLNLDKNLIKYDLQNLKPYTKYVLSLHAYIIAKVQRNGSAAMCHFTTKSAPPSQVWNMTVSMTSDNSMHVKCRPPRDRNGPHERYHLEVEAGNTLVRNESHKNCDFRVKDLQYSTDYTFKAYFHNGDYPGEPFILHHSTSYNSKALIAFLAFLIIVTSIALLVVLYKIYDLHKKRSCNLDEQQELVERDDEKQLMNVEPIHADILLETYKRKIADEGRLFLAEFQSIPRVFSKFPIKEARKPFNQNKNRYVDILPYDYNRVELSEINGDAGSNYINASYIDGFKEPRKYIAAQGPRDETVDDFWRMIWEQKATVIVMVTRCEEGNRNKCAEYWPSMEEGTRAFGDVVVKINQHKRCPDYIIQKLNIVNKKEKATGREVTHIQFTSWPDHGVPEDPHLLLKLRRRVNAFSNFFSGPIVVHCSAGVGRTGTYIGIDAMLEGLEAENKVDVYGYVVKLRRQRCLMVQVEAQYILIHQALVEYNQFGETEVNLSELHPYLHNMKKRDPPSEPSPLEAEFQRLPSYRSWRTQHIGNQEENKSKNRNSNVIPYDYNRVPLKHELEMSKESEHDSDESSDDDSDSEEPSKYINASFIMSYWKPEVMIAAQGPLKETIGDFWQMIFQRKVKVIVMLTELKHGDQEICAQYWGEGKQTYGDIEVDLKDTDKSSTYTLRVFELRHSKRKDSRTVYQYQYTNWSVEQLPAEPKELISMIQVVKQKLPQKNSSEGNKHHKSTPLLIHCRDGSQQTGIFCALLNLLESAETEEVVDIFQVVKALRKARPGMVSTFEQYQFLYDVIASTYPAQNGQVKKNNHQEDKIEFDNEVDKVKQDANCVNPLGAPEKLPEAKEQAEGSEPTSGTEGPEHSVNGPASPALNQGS
Nature of the experiment: PTP selectivity profiling. The class given is biochemical.

A further experiment addresses LAR (Homo sapiens, UniProt P10586). In words: PTP selectivity profiling. The format is biochemical.
A further experiment concerns human platelets. The class given is cell-based.
A further experiment has as its target T7, LYP (Homo sapiens, UniProt Q9Y2R2).
T7 sequence (Q9Y2R2 1-807): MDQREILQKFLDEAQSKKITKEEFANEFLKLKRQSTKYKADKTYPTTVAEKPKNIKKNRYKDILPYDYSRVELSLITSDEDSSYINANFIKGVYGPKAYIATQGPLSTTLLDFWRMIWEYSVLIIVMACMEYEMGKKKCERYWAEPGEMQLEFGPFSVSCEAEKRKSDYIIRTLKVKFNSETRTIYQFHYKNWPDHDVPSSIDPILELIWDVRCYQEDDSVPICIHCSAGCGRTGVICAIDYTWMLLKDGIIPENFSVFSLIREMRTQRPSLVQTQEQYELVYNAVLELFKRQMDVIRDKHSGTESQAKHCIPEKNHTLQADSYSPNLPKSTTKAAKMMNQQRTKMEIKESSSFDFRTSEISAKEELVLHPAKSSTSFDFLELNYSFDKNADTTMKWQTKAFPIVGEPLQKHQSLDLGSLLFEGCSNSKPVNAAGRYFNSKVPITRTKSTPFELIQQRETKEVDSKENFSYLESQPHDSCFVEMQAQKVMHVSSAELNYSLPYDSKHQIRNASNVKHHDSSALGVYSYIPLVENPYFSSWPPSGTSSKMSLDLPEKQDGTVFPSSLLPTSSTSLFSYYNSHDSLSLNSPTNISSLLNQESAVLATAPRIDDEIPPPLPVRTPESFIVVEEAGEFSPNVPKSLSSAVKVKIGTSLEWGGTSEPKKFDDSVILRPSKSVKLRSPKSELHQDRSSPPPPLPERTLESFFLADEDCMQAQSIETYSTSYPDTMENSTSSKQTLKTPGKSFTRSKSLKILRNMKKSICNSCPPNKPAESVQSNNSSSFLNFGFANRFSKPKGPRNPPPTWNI
Nature of the experiment: PTP selectivity profiling. The class given is biochemical.

The test system of experiment [1] is DUSP3-deficient platelets. Nature of the experiment: Platelet aggregation in washed platelets from Dusp3-KO mice. Conditions: Dusp3-KO mouse washed platelets, 3.7 μM, pre-incubated 30 min.
In a further experiment the target is T8, PTP1B (Homo sapiens, UniProt P18031).
T8 sequence (P18031 1-435): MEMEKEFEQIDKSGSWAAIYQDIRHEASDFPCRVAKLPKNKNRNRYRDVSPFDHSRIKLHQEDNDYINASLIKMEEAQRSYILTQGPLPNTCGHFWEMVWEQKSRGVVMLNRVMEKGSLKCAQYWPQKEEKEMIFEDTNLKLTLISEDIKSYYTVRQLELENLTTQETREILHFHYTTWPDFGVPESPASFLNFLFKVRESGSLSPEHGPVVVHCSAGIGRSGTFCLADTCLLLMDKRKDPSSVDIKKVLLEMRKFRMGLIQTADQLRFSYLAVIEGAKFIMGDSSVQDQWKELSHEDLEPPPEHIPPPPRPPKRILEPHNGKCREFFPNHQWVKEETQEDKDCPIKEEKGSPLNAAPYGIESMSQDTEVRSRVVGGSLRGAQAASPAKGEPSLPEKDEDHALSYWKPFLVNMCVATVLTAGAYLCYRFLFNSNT
In words: PTP selectivity profiling. The format is biochemical.

A further experiment relates to PTP-SL. Nature of the experiment: PTP selectivity profiling. The format is biochemical.
[2] abbreviates: DUSP3, HTS hits, text (Supplemental Table S2).

Chain of DUSP3 (P51452 whole entry): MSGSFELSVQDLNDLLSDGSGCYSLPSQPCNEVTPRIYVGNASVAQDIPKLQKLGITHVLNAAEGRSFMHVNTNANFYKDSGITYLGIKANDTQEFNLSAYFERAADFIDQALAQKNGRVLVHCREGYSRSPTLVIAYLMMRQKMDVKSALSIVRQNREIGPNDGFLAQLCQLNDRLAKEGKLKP
Chain of LAR (P10586 30-1907, species assumed): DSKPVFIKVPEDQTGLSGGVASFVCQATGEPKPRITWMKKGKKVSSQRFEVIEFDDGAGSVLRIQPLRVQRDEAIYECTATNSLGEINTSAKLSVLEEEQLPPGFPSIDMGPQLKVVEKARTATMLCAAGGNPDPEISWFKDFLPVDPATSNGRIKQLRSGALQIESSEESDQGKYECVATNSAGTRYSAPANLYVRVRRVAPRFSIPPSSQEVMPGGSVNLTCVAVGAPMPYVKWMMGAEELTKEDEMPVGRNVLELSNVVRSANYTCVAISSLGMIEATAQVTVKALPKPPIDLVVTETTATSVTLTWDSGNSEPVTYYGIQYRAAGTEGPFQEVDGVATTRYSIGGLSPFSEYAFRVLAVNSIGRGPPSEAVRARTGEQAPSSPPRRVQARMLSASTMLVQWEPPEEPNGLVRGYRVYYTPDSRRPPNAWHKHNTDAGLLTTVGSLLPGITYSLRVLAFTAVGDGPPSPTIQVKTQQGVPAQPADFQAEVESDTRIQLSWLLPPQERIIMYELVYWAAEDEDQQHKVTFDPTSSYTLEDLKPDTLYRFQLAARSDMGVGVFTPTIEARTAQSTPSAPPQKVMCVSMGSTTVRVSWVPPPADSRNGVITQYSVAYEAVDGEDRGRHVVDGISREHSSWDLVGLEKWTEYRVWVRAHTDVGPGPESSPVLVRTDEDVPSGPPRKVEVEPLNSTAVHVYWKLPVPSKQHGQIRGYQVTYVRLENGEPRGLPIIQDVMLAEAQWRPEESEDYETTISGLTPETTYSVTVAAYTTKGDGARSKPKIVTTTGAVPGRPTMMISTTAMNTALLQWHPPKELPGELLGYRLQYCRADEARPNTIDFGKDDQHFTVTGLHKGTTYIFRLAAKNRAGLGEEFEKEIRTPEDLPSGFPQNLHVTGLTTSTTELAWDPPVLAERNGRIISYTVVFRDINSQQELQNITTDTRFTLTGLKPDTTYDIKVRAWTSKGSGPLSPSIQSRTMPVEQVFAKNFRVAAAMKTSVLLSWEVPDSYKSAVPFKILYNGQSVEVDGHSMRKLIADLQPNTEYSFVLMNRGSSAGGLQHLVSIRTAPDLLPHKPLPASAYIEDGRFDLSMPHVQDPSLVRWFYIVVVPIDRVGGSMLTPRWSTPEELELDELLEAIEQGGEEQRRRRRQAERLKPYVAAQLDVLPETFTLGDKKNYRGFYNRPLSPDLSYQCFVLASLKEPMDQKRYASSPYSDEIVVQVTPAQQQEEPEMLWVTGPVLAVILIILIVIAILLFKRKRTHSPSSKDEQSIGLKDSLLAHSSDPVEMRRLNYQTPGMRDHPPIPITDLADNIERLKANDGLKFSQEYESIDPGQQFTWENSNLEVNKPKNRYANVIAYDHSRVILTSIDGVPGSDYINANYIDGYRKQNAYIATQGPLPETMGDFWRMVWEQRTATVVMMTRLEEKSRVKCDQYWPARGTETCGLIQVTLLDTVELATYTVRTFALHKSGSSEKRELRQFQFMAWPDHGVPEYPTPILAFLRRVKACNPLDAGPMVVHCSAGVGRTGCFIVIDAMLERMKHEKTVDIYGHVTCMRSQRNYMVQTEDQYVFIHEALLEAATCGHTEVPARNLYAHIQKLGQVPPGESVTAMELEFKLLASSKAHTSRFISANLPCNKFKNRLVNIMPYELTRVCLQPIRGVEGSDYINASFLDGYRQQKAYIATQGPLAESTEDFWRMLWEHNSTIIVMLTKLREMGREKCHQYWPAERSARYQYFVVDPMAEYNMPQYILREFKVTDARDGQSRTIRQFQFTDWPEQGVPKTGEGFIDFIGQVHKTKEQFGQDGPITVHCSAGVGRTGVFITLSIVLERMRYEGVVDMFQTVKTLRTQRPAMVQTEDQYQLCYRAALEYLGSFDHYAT

Compound `COc1ccc(-c2nnc(Nc3nc4c(OC)cccc4s3)o2)cc1` [MLS-0049585] yielded an IC50 against DUSP3 (setting [2]) of 2.68 µM.

As for `COc1cc(C(=S)N2CCCCC2)ccc1O` [MLS-0103602], at DUSP3 (setting [2]), half-maximal inhibition (IC50) required 0.37 µM.

`COc1ccc(-c2nnc(Nc3nc4c(F)cccc4s3)o2)cc1` [MLS-0437605]: the IC50 at HePTP is 38 µM; against DUSP22 (DUSP22), 26 µM; at TCPTP, 55 µM; at STEP it was greater than 100 µM; against DUSP6 it was greater than 100 µM; at CD45 it was greater than 100 µM. Further, the IC50 is greater than 100 µM against LAR; 3.7 µM against DUSP3 (DUSP3); 49 µM on LYP; greater than 100 µM on PTP1B; 13 µM in the experiment with PTP-SL. Besides, the “selectivity for DUSP3 over DUSP22” value on DUSP22 (DUSP3 over DUSP22) is listed as 7 fold. The “Tyrosine phosphorylation of immunoprecipitated Syk and PLCγ2” value with human platelets (human platelets, CRP- or rhodocytin-activated) was “reduced”. The “Global tyrosine phosphorylation (pY) of ~70-kDa band” value with human platelets (total lysates of human platelets after stimulation with CRP or rhodocytin) is given as “caused a decrease in pY”. Moreover, in experiment [1], the “Effect on aggregation of DUSP3-deficient platelets” value is on record as “only minimally affected aggregation”.
